# Reference: patent US20230322767A1, “ARYL SUBSTITUTED PYRROLO-PYRIDINONES AND THERAPEUTIC USES THEREOF” (Bayer Aktiengesellschaft, priority 2020, published 2023)
# Where two headings read alike, the source gives them in different places.
# Tests used:
# Assay type in all cases: biochemical
# [1] = target: CSNK1A1 (Homo sapiens (Human), UniProt P48729); experiment: CSNK1A1 Assay 2 (ADP-Glo, 1 μM ATP); settings: median, read-out: CSNK1A1 Assay 2 IC50 [mol/l] (median)
# Outline: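 Enzyme (~0.0375 ng/μL) preincubated 15 min at 22° C with compound in HEPES pH 7.5 buffer, then reacted with 1 μM ATP and biotin-Ahx-KRRRAL-pS-VASLPGL peptide. ADP product measured by ADP-Glo luminescence after 1 h ATP depletion and 1 h detection at 22° C.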
# [2] = target: CSNK1D (Homo sapiens (Human), UniProt P48730); experiment: CSNK1D Assay (ADP-Glo, 1 μM ATP); settings: median, read-out: CSNK1D IC50 [mol/l] (median)
# Outline: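 Enzyme preincubated with compound 15 min at 22° C in 50 mM HEPES pH 7.5 buffer with 10 mM MgCl2, 1 mM DTT; kinase reaction run at 1 μM ATP with biotinylated peptide substrate. ADP formed was detected by ADP-Glo luminescence as the measure of activity.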
# [3] = target: wild-type Epidermal Growth Factor Receptor (EGFR) (Homo sapiens (Human), UniProt P00533); experiment: WT-EGFR Kinase Assay (TR-FRET, 2 mM ATP)
# Outline: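 GST-tagged human EGFR (R669–A1210, Sf9-expressed) preincubated 15 min at 22° C with compound in pH 7.0 Hepes/MgCl2 buffer, then reacted at 2 mM ATP with a biotinylated peptide substrate. Phosphorylation detected by TR-FRET (streptavidin-XL665, Tb-cryptate anti-phosphotyrosine) as the 665/620 nm emission ratio.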
# [4] = EGFR Wildtyp 2 mM ATP IC50 [mol/l] (median), median or individual measurements
# [5] = read-out: EGFR Wildtyp 2 mM ATP IC50 [mol/l] (median), median or individual measurements
# CSNK1D, sequence (P48730 whole entry): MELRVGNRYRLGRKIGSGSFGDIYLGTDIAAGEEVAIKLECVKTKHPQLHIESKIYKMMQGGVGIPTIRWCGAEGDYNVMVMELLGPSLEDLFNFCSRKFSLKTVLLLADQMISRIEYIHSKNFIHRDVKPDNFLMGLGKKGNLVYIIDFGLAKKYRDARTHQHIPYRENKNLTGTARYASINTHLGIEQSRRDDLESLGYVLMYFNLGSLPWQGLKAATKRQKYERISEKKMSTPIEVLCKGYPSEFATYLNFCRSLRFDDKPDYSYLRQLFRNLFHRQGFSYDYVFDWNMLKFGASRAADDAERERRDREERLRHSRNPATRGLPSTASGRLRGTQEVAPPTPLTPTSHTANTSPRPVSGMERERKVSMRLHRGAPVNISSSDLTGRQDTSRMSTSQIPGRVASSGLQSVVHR
# wild-type Epidermal Growth Factor Receptor (EGFR), sequence (P00533 669-1210): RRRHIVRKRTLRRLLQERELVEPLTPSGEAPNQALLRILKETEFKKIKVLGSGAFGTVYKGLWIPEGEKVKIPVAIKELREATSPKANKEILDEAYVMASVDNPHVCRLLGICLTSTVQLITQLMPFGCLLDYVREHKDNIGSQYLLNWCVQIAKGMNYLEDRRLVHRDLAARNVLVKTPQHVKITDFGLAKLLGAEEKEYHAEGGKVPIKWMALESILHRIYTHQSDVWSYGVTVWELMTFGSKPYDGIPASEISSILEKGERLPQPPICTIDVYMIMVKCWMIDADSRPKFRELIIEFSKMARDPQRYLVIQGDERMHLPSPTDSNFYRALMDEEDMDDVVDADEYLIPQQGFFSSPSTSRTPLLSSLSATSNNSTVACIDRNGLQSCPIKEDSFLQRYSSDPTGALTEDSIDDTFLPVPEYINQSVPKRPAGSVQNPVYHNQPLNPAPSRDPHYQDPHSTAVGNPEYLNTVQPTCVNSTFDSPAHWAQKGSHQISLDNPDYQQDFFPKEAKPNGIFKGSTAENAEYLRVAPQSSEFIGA
# CSNK1A1, sequence (P48729 whole entry): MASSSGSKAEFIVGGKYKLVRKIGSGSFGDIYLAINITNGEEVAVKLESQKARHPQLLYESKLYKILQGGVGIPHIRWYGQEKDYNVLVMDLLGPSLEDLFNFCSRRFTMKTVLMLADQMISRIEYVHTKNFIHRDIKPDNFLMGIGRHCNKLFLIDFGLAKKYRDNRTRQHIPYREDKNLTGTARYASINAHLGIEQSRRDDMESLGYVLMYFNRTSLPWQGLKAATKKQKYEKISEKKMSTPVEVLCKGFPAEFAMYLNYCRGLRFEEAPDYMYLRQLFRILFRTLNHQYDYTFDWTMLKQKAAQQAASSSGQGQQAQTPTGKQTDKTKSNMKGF
Compound,IC50 [1] [nM],IC50 [2] [nM],"IC50 [3, 4] [nM]","IC50 [3, 5] [nM]"
"Cn1ccc2[nH]c(-c3ccnc(NC(=O)C(CC(F)F)c4ccc(F)cc4)c3)c(-c3ccc(F)cc3)c2c1=O (single isomer, unassigned; (+)) [Example 109, (+)-4,4-difluoro-2-(4-fluorophenyl)-N-{4-[3-(4-fluorophenyl)-5-methyl-4-oxo-4,5-dihydro-1H-pyrrolo[3,2-c]pyridin-2-yl]pyridin-2-yl}butanamide]",2.1,3.7,3850,
"CC(C(=O)Nc1cc(-c2[nH]c3ccn(C)c(=O)c3c2-c2ccc(F)c(F)c2)ccn1)c1ccc(F)cc1 (racemic) [Example 114, N-{4-[3-(3,4-difluorophenyl)-5-methyl-4-oxo-4,5-dihydro-1H-pyrrolo[3,2-c]pyridin-2-yl]pyridin-2-yl}-2-(4-fluorophenyl)propanamide]",4.8,6.8,> 20000,
"O=C(Cc1ccc(F)cc1)Nc1cc(-c2[nH]c3ccn(C4CC4)c(=O)c3c2-c2ccccc2)ccn1 [Example 159, N-[4-(5-cyclopropyl-4-oxo-3-phenyl-4,5-dihydro-1H-pyrrolo[3,2-c]pyridin-2-yl)pyridin-2-yl]-2-(4-fluorophenyl)acetamide]",0.96,1.6,,> 20000
"CC(C(=O)Nc1cc(-c2[nH]c3ccn(C)c(=O)c3c2-c2ccccc2C#N)ccn1)c1ccc(F)cc1 (racemic) [Example 123, N-{4-[3-(2-cyanophenyl)-5-methyl-4-oxo-4,5-dihydro-1H-pyrrolo[3,2-c]pyridin-2-yl]pyridin-2-yl}-2-(4-fluorophenyl)propanamide]",25,22,> 20000,
"CC(C(=O)Nc1cc(-c2[nH]c3c(c2-c2cccnc2)C(=O)NC(C)(C)C3)ccn1)c1ccc(F)cc1 (single isomer, unassigned) [Example 98, N-{4-[6,6-dimethyl-4-oxo-3-(pyridin-3-yl)-4,5,6,7-tetrahydro-1H-pyrrolo[3,2-c]pyridin-2-yl]pyridin-2-yl}-2-(4-fluorophenyl)propanamide]",71,19,> 20000,
"CC(C(=O)Nc1cc(-c2[nH]c3ccn(C)c(=O)c3c2-c2ccc(F)cc2)ccn1)c1ccc(F)cc1 (single isomer, unassigned; (-)) [Example 101, (−)-2-(4-fluorophenyl)-N-{4-[3-(4-fluorophenyl)-5-methyl-4-oxo-4,5-dihydro-1H-pyrrolo[3,2-c]pyridin-2-yl]pyridin-2-yl}propanamide]",12,5.6,32.4,
"CC(C(=O)Nc1cc(-c2[nH]c3c(c2-c2ccccc2F)C(=O)NC(C)(C)C3)ccn1)c1ccc(F)cc1 (stereo not shown) [Example 87, 2-(4-fluorophenyl)-N-{4-[3-(2-fluorophenyl)-6,6-dimethyl-4-oxo-4,5,6,7-tetrahydro-1H-pyrrolo[3,2-c]pyridin-2-yl]pyridin-2-yl}propanamide]",12,13,,> 20000
"COCCNC(=O)c1ccc(CC(=O)Nc2cc(-c3[nH]c4c(c3-c3ccc(F)cc3)C(=O)N(C)CC4)ccn2)cc1 [Example 140, 4-[2-({4-[3-(4-fluorophenyl)-5-methyl-4-oxo-4,5,6,7-tetrahydro-1H-pyrrolo[3,2-c]pyridin-2-yl]pyridin-2-yl}amino)-2-oxoethyl]-N-(2-methoxyethyl)benzamide]",1.6,1.8,,> 20000
"Cc1cccc(-c2c(-c3ccnc(NC(=O)Cc4ccc(F)cc4)c3)[nH]c3c2C(=O)NC(C)(C)C3)c1 [Example 86, N-{4-[6,6-dimethyl-3-(3-methylphenyl)-4-oxo-4,5,6,7-tetrahydro-1H-pyrrolo[3,2-c]pyridin-2-yl]pyridin-2-yl}-2-(4-fluorophenyl)acetamide]",4,5.2,,> 20000
"CC1(C)Cc2[nH]c(-c3ccnc(NC(=O)Cc4ccc(F)cc4)c3)c(-c3cccc(F)c3)c2C(=O)N1 [Example 85, 2-(4-fluorophenyl)-N-{4-[3-(3-fluorophenyl)-6,6-dimethyl-4-oxo-4,5,6,7-tetrahydro-1H-pyrrolo[3,2-c]pyridin-2-yl]pyridin-2-yl}acetamide]",1.9,3.9,,> 5710
"O=C(Nc1cc(-c2[nH]c3ccn(C4CC4)c(=O)c3c2-c2ccc(F)cc2)ccn1)C(CC(F)F)c1ccc(F)cc1 (racemic) [Example 134, N-{4-[5-cyclopropyl-3-(4-fluorophenyl)-4-oxo-4,5-dihydro-1H-pyrrolo[3,2-c]pyridin-2-yl]pyridin-2-yl}-4,4-difluoro-2-(4-fluorophenyl)butanamide]",5.5,7,> 20000,
"CC(C(=O)Nc1cc(-c2[nH]c3c(c2-c2ccccc2)C(=O)N(C)CC3)ccn1)c1ccncc1 (single isomer, unassigned) [Example 155, N-[4-(5-methyl-4-oxo-3-phenyl-4,5,6,7-tetrahydro-1H-pyrrolo[3,2-c]pyridin-2-yl)pyridin-2-yl]-2-(pyridin-4-yl)propanamide]",1.3,2,> 20000,
"CC(C(=O)Nc1cc(-c2[nH]c3c(c2-c2ccc(F)cc2)C(=O)NC(C)(C)C3)ccn1)c1ccc(F)cc1 (single isomer, unassigned) [Example 95, 2-(4-fluorophenyl)-N-{4-[3-(4-fluorophenyl)-6,6-dimethyl-4-oxo-4,5,6,7-tetrahydro-1H-pyrrolo[3,2-c]pyridin-2-yl]pyridin-2-yl}propanamide]",14,4.6,> 20000,
"Cc1ccc(-c2c(-c3ccnc(NC(=O)C(C)c4ccc(F)cc4)c3)[nH]c3c2C(=O)NC(C)(C)C3)cc1 (racemic) [Example 91, N-{4-[6,6-dimethyl-3-(4-methylphenyl)-4-oxo-4,5,6,7-tetrahydro-1H-pyrrolo[3,2-c]pyridin-2-yl]pyridin-2-yl}-2-(4-fluorophenyl)propanamide]",7.7,7.6,> 20000,
"CN1CCc2[nH]c(-c3ccnc(NC(=O)Cc4ccc(F)cc4)c3)c(-c3ccccc3)c2C1=O [Example 1, 2-(4-fluorophenyl)-N-[4-(5-methyl-4-oxo-3-phenyl-4,5,6,7-tetrahydro-1H-pyrrolo[3,2-c]pyridin-2-yl)pyridin-2-yl]acetamide]",1.3,3.7,,> 20000
"CC(C(=O)Nc1cc(-c2[nH]c3ccn(C)c(=O)c3c2-c2ccnc(N)c2)ccn1)c1ccc(F)cc1 (racemic) [Example 126, N-{4-[3-(2-aminopyridin-4-yl)-5-methyl-4-oxo-4,5-dihydro-1H-pyrrolo[3,2-c]pyridin-2-yl]pyridin-2-yl}-2-(4-fluorophenyl)propanamide]",55,63,> 20000,
"CC1(C)Cc2[nH]c(-c3ccnc(NC(=O)Cc4ccc(F)cc4)c3)c(-c3ccc(F)cc3)c2C(=O)N1 [Example 83, 2-(4-fluorophenyl)-N-{4-[3-(4-fluorophenyl)-6,6-dimethyl-4-oxo-4,5,6,7-tetrahydro-1H-pyrrolo[3,2-c]pyridin-2-yl]pyridin-2-yl}acetamide]",1.9,3.5,,> 20000
"O=C(Cc1ccc(F)cc1)Nc1cc(-c2[nH]c3c(c2-c2ccccc2)C(=O)NCC3)ccn1 [Example 72, 2-(4-fluorophenyl)-N-[4-(4-oxo-3-phenyl-4,5,6,7-tetrahydro-1H-pyrrolo[3,2-c]pyridin-2-yl)pyridin-2-yl]acetamide]",0.66,1.3,,> 20000
"CC(C(=O)Nc1cc(-c2[nH]c3c(c2-c2ccc(F)cc2F)C(=O)N(C)CC3)ccn1)c1ccc(F)cc1 (racemic) [Example 69, N-{4-[3-(2,4-difluorophenyl)-5-methyl-4-oxo-4,5,6,7-tetrahydro-1H-pyrrolo[3,2-c]pyridin-2-yl]pyridin-2-yl}-2-(4-fluorophenyl)propanamide]",3.1,2.8,> 20000,
"CC(C(=O)Nc1cc(-c2[nH]c3ccn(C)c(=O)c3c2-c2ccc(F)cc2)ccn1)c1ccc(F)cc1 (racemic) [Example 100, 2-(4-fluorophenyl)-N-{4-[3-(4-fluorophenyl)-5-methyl-4-oxo-4,5-dihydro-1H-pyrrolo[3,2-c]pyridin-2-yl]pyridin-2-yl}propanamide]",5.9,8.6,> 20000,
"CC(C(=O)Nc1cc(-c2[nH]c3ccn(C)c(=O)c3c2-c2ccc(Cl)s2)ccn1)c1ccc(F)cc1 (racemic) [Example 122, N-{4-[3-(5-chloro-2-thienyl)-5-methyl-4-oxo-4,5-dihydro-1H-pyrrolo[3,2-c]pyridin-2-yl]pyridin-2-yl}-2-(4-fluorophenyl)propanamide]",3.6,9,> 5710,> 5710
"CC(C(=O)Nc1cc(-c2[nH]c3ccn(C)c(=O)c3c2-c2cccnc2F)ccn1)c1ccc(F)cc1 (racemic) [Example 110, 2-(4-fluorophenyl)-N-{4-[3-(2-fluoropyridin-3-yl)-5-methyl-4-oxo-4,5-dihydro-1H-pyrrolo[3,2-c]pyridin-2-yl]pyridin-2-yl}propanamide]",30,21,> 20000,
